Source: ChEMBL document CHEMBL4043236, “Design and synthesis of novel PRMT1 inhibitors and investigation of their binding preferences using molecular modelling” (Bioorg Med Chem Lett, 2017)

What was measured:
[1] = target: T1, Protein arginine N-methyltransferase 1 (Homo sapiens, UniProt Q99873); assay: (§1) Inhibition of recombinant human N-terminal GST-tagged PRMT1 (2 to end residues) expressed in baculovirus infected Sf9 insect cells at 9 uM using biotinylated histone H4 peptide as substrate preincubated for 15 mins followed by substrate/[3H]-SAM addition measured after 60 mins by microbeta liquid scintillation counting analysis
Target sequence in this assay (Q99873 whole entry, looked up): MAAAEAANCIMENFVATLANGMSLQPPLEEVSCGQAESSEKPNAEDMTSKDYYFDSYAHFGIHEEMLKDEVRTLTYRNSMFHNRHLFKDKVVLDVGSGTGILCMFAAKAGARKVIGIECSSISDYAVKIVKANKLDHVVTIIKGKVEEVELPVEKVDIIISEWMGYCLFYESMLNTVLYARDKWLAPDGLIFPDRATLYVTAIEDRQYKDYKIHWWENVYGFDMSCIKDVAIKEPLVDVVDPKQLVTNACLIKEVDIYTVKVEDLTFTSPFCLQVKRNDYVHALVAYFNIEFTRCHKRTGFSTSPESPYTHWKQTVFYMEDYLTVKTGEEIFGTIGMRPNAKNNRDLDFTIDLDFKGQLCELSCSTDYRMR

MCF7 = assay: Cytotoxicity against human MCF7 cells assessed as reduction in cell viability after 72 hrs by CellTiter-blue assay; assay type: functional, cell-based; conditions: MCF7, 72 h
[2] = target: T1, Protein arginine N-methyltransferase 1; assay: as §1, with “cells” for “cells at 9 uM”
Target sequence in this assay (Q99873 whole entry): as the sequence (Q99873 whole entry, looked up) above

HepG2 = assay: Cytotoxicity against human HepG2 cells assessed as reduction in cell viability after 72 hrs by CellTiter-blue assay; assay type: functional, cell-based; conditions: HepG2, 72 h
Daoy = assay: Cytotoxicity against human DaOY cells assessed as reduction in cell viability after 72 hrs by CellTiter-blue assay; assay type: functional, cell-based
[3] = target: T1, Protein arginine N-methyltransferase 1; assay: Potency index, ratio of AMI-1 IC50 to compound IC50 for recombinant human N-terminal GST-tagged PRMT1 (2 to end residues) expressed in baculovirus infected Sf9 insect cells
Target sequence in this assay (Q99873 whole entry, looked up): as above

CNCCN(C)c1nnnn1Cc1ccc(OC)cc1
inhibition [1]: 0%

CN(CCN)Cc1ccc(-c2ccc(OC(F)(F)F)cc2)o1
inhibition [1]: 25%

CNCCN(C)Cc1ccc(-c2ccc(OC(F)(F)F)cc2)o1
inhibition [1]: 40% | IC50 (MCF7): 30.6 µM | IC50 [2]: 17 µM | IC50 (HepG2): 24.2 µM | IC50 (Daoy): 24.3 µM

CNCCN(C)Cc1ccc(-c2cccc(C#N)c2)o1
inhibition [1]: 33%

CNCCN(C)Cc1ccc(-c2cccc(C(=O)OC)c2)o1
inhibition [1]: 51% | IC50 (MCF7): > 100 µM | IC50 [2]: 14 µM | IC50 (HepG2): 74.1 µM | IC50 (Daoy): 71.2 µM

CNCCN(C)Cc1ccc(-c2ccc(OC)cc2)o1
inhibition [1]: 38%

CNCCN(C)c1nnnn1Cc1ccccc1C(F)(F)F
inhibition [1]: 13%

CNCCN(C)Cc1ccc(-c2ccc(C(=O)OC)cc2)o1
inhibition [1]: 32%

CNCCN(C)c1nnnn1Cc1ccc(OC(F)(F)F)cc1
inhibition [1]: 5%

CN(CCN)Cc1ccc(-c2cccc(C#N)c2)o1
inhibition [1]: 38%

COC(=O)c1ccc(-c2ccc(CN(C)CCN)o2)cc1
inhibition [1]: 30%

CNCCN(C)Cc1ccc(-c2ccc(C#N)cc2)o1
inhibition [1]: 35%

CNCCN(C)c1nnnn1Cc1ccc(C(F)(F)F)cc1
inhibition [1]: 2%

CNCCN(C)c1nnnn1Cc1cccc(C(F)(F)F)c1
inhibition [1]: 8%

CNCCN(C)c1nnnn1Cc1cccc(OC(F)(F)F)c1
inhibition [1]: 12%

CN(CCN)Cc1ccc(-c2cccc(OC(F)(F)F)c2)o1
inhibition [1]: 46% | IC50 (MCF7): > 100 µM | IC50 [2]: 14 µM | IC50 (HepG2): > 100 µM | IC50 (Daoy): > 100 µM

CNCCN(C)Cc1ccc(-c2cccc(C(F)(F)F)c2)o1
inhibition [1]: 43% | IC50 (MCF7): 61.1 µM | IC50 [2]: 14 µM | IC50 (HepG2): 34.5 µM | IC50 (Daoy): 69.8 µM

CNCCN(C)c1nnnn1Cc1ccc(C#N)cc1
inhibition [1]: 6%

CNCCN(C)Cc1ccc(-c2cccc(OC(F)(F)F)c2)o1
inhibition [1]: 41% | IC50 (MCF7): 64.4 µM | IC50 [2]: 14 µM | IC50 (HepG2): 23 µM | IC50 (Daoy): 23.6 µM

CNCCN(C)c1nnnn1Cc1ccccc1OC(F)(F)F
inhibition [1]: 9%

O=C(Nc1ccc2c(O)cc(S(=O)(=O)O)cc2c1)Nc1ccc2c(O)cc(S(=O)(=O)O)cc2c1
IC50 (MCF7): > 100 µM | IC50 (HepG2): 51.2 µM | IC50 (Daoy): > 100 µM

CNCCN(C)Cc1ccc(-c2cccc(OC)c2)o1
inhibition [1]: 37%

CNCCN(C)Cc1ccc(-c2ccc(C(F)(F)F)cc2)o1
Ratio IC50 [3]: 3 | inhibition [1]: 43% | IC50 (MCF7): 49.8 µM | IC50 [2]: 8.2 µM | IC50 (HepG2): 36.4 µM | IC50 (Daoy): 72.8 µM

COC(=O)c1cccc(-c2ccc(CN(C)CCN)o2)c1
inhibition [1]: 38%

Nc1ncnc2c1ncn2[C@@H]1O[C@H](CSCC[C@H](N)C(=O)O)[C@@H](O)[C@H]1O
inhibition [1]: 90%

CN(CCN)Cc1ccc(-c2ccc(C(F)(F)F)cc2)o1
inhibition [1]: 37%

COc1cccc(-c2ccc(CN(C)CCN)o2)c1
inhibition [1]: 24%

CN(CCN)Cc1ccc(-c2cccc(C(F)(F)F)c2)o1
inhibition [1]: 31%

FC(F)(F)c1cccc(Cn2nnnc2N2CCNCC2)c1
inhibition [1]: 1%

COc1ccc(-c2ccc(CN(C)CCN)o2)cc1
inhibition [1]: 25%
